Reference: patent US20220380341A1, “INHIBITORS OF HIV-1 NEF FOR THE TREATMENT OF HIV DISEASE” (priority 2018, published 2022)
Where two headings read alike, the source gives them in different places.

Columns and labels:
[1] = test system: HIV-1NL4-3; assay: HIV-1 infectivity assay in TZM-bl reporter cell line (LTR-luciferase, 48 h); format: cell-based; conditions: Human immunodeficiency virus 1, TZM-bl
How it was run: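 Percent inhibition of HIV-1NL4-3 infectivity at 1 μM compound, from luciferase output of TZM-bl cells 48 h after infection. Scale anchors are DMSO-treated wild-type infection as zero and DMSO-treated Nef-defective infection as full Nef-dependent effect.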

[2] = test system: TZM-bl cell line; format: cell-based; conditions: human, 1 μM
How it was run: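 Luciferase read-out 48 h post-infection; compound at 1 μM during HIV-1NL4-3 infection of TZM-bl cells. Percent inhibition scaled to DMSO wild-type virus (0%) and DMSO Nef-defective virus (100% of Nef-dependent effect). Viability checked separately in uninfected cells by Cell Titer Blue.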

[3] = target: HIV-1 NefNL4-3 (Human immunodeficiency virus type 1 group M subtype B, UniProt P03406, A33V/T15A/T51N/V11I); assay: Surface plasmon resonance binding to recombinant full-length Nef (NL4-3); conditions: for Nef NL4-3 Binding, SPR 1:1 or 2-site fitting KD1: 1:1 Langmuir fit where the KD2 cell says '1 to 1 fitting', else 2-site fit; for RU30/RUNef (extent of binding): response units at 30 μM relative to Nef immobilized on the SPR chip
[4] = 48 h, Table 1, TZM-bl cells, 1 μM, 48 h, 100% = Nef-defective HIV-1, read-out: HIV-1 Infectivity % Inhibition Norm. to Δ-Nef @ 1 μM
[5] = 1.0 μM, TZM-bl reporter cell line, Table 4, read-out: % Infectivity Inhibition
[6] = KD, M, Table 4, SPR fit 2-step induced fit, KD = koff/kon × koff2/(koff2 + kon2)
[7] = Nef NL4-3 Binding, SPR 2-state fitting KD, Table 1, 2-step induced-fit model
[8] = Table 4, 2-step induced fit, T = 1/koff2
[9] = read-out: Nef NL4-3 Binding, SPR 1:1 or 2-site fitting KD2, Table 1, 2-site fit, second component
[10] = KD, M, Table 4, SPR fit 1:1 Langmuir, KD = koff/kon
[11] = Table 4, 1:1 Langmuir fit, T = 1/koff
[12] = 48 h, Table 2, TZM-bl cells, 1 μM, 48 h, 100% = Nef-defective HIV-1, read-out: HIV-1 Infectivity % Inhibition Norm. to Δ-Nef @ 1 μM

Oc1c(CCn2nccn2)c(-c2ccc(C(F)(F)F)cc2)nn1-c1nc2ccccc2[nH]1 [Compound I-141, 1-(1H-1,3-benzodiazol-2-yl)-4-[2-(2H-1,2,3-triazol-2-yl)ethyl]-3-[4-(trifluoromethyl)phenyl]-1H-pyrazol-5-ol]
inhibition at 1 µM [1, 4]: 8.7%
Percent Viability @ 1 μM (TZM-bl cells) [2]: 99.5%
Nef NL4-3 Binding, SPR 1:1 or 2-site fitting KD1 ([3]; Table 1): No Interaction

Oc1c(CCc2ccc(F)cc2)c(-c2cnc(C(F)(F)F)nc2)nn1-c1nc2ccccc2[nH]1 [Compound I-126, 1-(1H-1,3-benzodiazol-2-yl)-4-[2-(4-fluorophenyl)ethyl]-3-[2-(trifluoromethyl)pyrimidin-5-yl]-1H-pyrazol-5-ol]
inhibition at 1 µM [1, 4]: -13.9%
Percent Viability @ 1 μM (TZM-bl cells) [2]: 107.8%
Nef NL4-3 Binding, SPR 1:1 or 2-site fitting KD1 ([3]; Table 1): No Interaction

CN(C)C(=O)N1CCC(c2nn(-c3nc4ccccc4[nH]3)c(O)c2CCC2CCOCC2)CC1 [Compound I-739, 4-[1-(1H-1,3-benzodiazol-2-yl)-5-hydroxy-4-[2-(oxan-4-yl)ethyl]-1H-pyrazol-3-yl]-N,N-dimethylpiperidine-1-carboxamide]
inhibition at 1 µM [1, 4]: -7%
Percent Viability @ 1 μM (TZM-bl cells) [2]: 100.0%
Nef NL4-3 Binding, SPR 1:1 or 2-site fitting KD1 ([3]; Table 1): No Interaction

Oc1c(CCc2ccc(F)cc2)c(-c2cccnc2)nn1-c1nc2ccccc2[nH]1 [Compound I-121, 1-(1H-1,3-benzodiazol-2-yl)-4-[2-(4-fluorophenyl)ethyl]-3-(pyridin-3-yl)-1H-pyrazol-5-ol]
inhibition at 1 µM [1, 5]: 29.6%
inhibition at 1 µM [1, 4]: 29.6%
% Cell Viability [2]: 97.8%
Percent Viability @ 1 μM (TZM-bl cells) [2]: 97.8%
Kd [3]: 0.0383 nM
Kd [3, 6]: 474 nM
Kd [3, 7]: 474 nM
T, minutes (residence time) [3, 8]: 2.58E + 01 minutes
Kd [3, 9]: 2610 nM
RU30/RUNef (extent of binding) [3]: 7.40E- 03

CC(C)(C)OC(=O)N1CCC(Cc2nn(-c3nc4ccccc4[nH]3)c(O)c2CCc2ccc(F)cc2)CC1 [Compound I-770]
inhibition at 1 µM [1, 5]: 49.2%
inhibition at 1 µM [1, 4]: 49.2%
% Cell Viability [2]: 99.7%
Percent Viability @ 1 μM (TZM-bl cells) [2]: 99.7%
Kd [3]: 1.05 nM
Kd [3, 10]: 1.05 nM
T, minutes (residence time) [3, 11]: 1.65E + 04 minutes
RU30/RUNef (extent of binding) [3]: 3.04E- 03

O=C(c1ccccn1)N1CCC(c2nn(-c3nc4ccccc4[nH]3)c(O)c2CCc2ccc(F)cc2)CC1 [Compound I-730, 1-(1H-1,3-benzodiazol-2-yl)-4-[2-(4-fluorophenyl)ethyl]-3-[1-(pyridine-2-carbonyl)piperidin-4-yl]-1H-pyrazol-5-ol]
inhibition at 1 µM [1, 4]: 24.6%
Percent Viability @ 1 μM (TZM-bl cells) [2]: 95.1%
Nef NL4-3 Binding, SPR 1:1 or 2-site fitting KD1 ([3]; Table 1): No Interaction

Oc1c(CCc2ccc(F)cc2)c(-c2ccc(C(F)(F)F)cn2)nn1-c1cc(C(F)(F)F)n[nH]1 [Compound I-602, 4-[2-(4-fluorophenyl)ethyl]-5′-(trifluoromethyl)-3-[5-(trifluoromethyl)pyridin-2-yl]-2′H-[1,3′-bipyrazol]-5-ol]
inhibition at 1 µM [1, 12]: 73.8%
Percent Viability @ 1 μM (TZM-bl cells) [2]: 97.2%
Nef NL4-3 Binding, SPR 1:1 or 2-site fitting KD1 ([3]; Table 2): No interaction

Oc1c(CCc2ccc(F)cc2)c(C2CCNCC2)nn1-c1nc2ccc(Cl)cc2[nH]1 [Compound I-503, 1-(5-chloro-1H-1,3-benzodiazol-2-yl)-4-[2-(4-fluorophenyl)ethyl]-3-(piperidin-4-yl)-1H-pyrazol-5-ol]
inhibition at 1 µM [1, 5]: 0%
inhibition at 1 µM [1, 4]: -94.1%
% Cell Viability [2]: 90.7%
Percent Viability @ 1 μM (TZM-bl cells) [2]: 90.7%
Kd [3]: 256 nM
Kd [3, 6]: 0.617 nM
Kd [3, 7]: 0.511 nM
T, minutes (residence time) [3, 8]: 3.18E + 04 minutes
Kd [3, 9]: 3020 nM
RU30/RUNef (extent of binding) [3]: 1.05E- 02

Oc1c(CCn2cc(Cl)cn2)c(-c2ccc(C(F)(F)F)cc2)nn1-c1nc2ccccc2[nH]1 [Compound I-143, 1-(1H-1,3-benzodiazol-2-yl)-4-[2-(4-chloro-1H-pyrazol-1-yl)ethyl]-3-[4-(trifluoromethyl)phenyl]-1H-pyrazol-5-ol]
inhibition at 1 µM [1, 5]: 0%
inhibition at 1 µM [1, 4]: -19.6%
% Cell Viability [2]: 98.9%
Percent Viability @ 1 μM (TZM-bl cells) [2]: 98.9%
Kd [3]: 426 nM
Kd [3, 10]: 426 nM
T, minutes (residence time) [3, 11]: 1.75E + 01 minutes
RU30/RUNef (extent of binding) [3]: 1.02E- 03

CS(=O)(=O)c1cccc(-c2nn(-c3cc(C(F)(F)F)n[nH]3)c(O)c2CCC2CCOCC2)c1 [Compound I-608, 3-(3-methanesulfonylphenyl)-4-[2-(oxan-4-yl)ethyl]-5′-(trifluoromethyl)-2′H-[1,3′-bipyrazol]-5-ol]
inhibition at 1 µM [1, 12]: 5.3%
Percent Viability @ 1 μM (TZM-bl cells) [2]: 101.2%
Nef NL4-3 Binding, SPR 1:1 or 2-site fitting KD1 ([3]; Table 2): No interaction

Oc1c(CCc2ccc(F)cc2)c(-c2ccc(C(F)(F)F)nc2)nn1-c1nc2ccccc2[nH]1 [Compound I-135, 1-(1H-1,3-benzodiazol-2-yl)-4-[2-(4-fluorophenyl)ethyl]-3-[6-(trifluoromethyl)pyridin-3-yl]-1H-pyrazol-5-ol]
inhibition at 1 µM [1, 5]: 35.7%
inhibition at 1 µM [1, 4]: 35.7%
% Cell Viability [2]: 91.9%
Percent Viability @ 1 μM (TZM-bl cells) [2]: 91.9%
Kd [3]: 636 nM
Kd [3, 6]: 14.7 nM
Kd [3, 7]: 14.7 nM
T, minutes (residence time) [3, 8]: 1.47E + 03 minutes
RU30/RUNef (extent of binding) [3]: 2.87E- 03

Cc1nccn1CCc1c(-c2ccc(C(F)(F)F)cc2)nn(-c2nc3ccccc3[nH]2)c1O [Compound I-142, 1-(1H-1,3-benzodiazol-2-yl)-4-[2-(2-methyl-1H-imidazol-1-yl)ethyl]-3-[4-(trifluoromethyl)phenyl]-1H-pyrazol-5-ol]
inhibition at 1 µM [1, 4]: -7.8%
Percent Viability @ 1 μM (TZM-bl cells) [2]: 100.2%
Kd [3]: 32800 nM

COC(=O)N1CCC(c2nn(-c3nc4ccccc4[nH]3)c(O)c2CCc2ccc(F)cc2)CC1 [Compound I-740, methyl 4-[1-(1H-1,3-benzodiazol-2-yl)-4-[2-(4-fluorophenyl)ethyl]-5-hydroxy-1H-pyrazol-3-yl]piperidine-1-carboxylate]
inhibition at 1 µM [1, 5]: 39.1%
inhibition at 1 µM [1, 4]: 39.1%
% Cell Viability [2]: 89.8%
Percent Viability @ 1 μM (TZM-bl cells) [2]: 89.8%
Kd [3]: 157 nM
Kd [3, 6]: 544 nM
Kd [3, 7]: 544 nM
T, minutes (residence time) [3, 8]: 1.26E + 01 minutes
Kd [3, 9]: 3380 nM
RU30/RUNef (extent of binding) [3]: 7.81E- 03

Oc1c(CCN2CCOCC2)c(-c2ccc(C(F)(F)F)cc2)nn1-c1nc2ccccc2[nH]1 [Compound I-131, 1-(1H-1,3-benzodiazol-2-yl)-4-[2-(morpholin-4-yl)ethyl]-3-[4-(trifluoromethyl)phenyl]-1H-pyrazol-5-ol]
inhibition at 1 µM [1, 5]: 14.2%
inhibition at 1 µM [1, 4]: 14.2%
% Cell Viability [2]: 96.4%
Percent Viability @ 1 μM (TZM-bl cells) [2]: 96.4%
Kd [3]: 1360 nM
Kd [3, 6]: 4930 nM
Kd [3, 7]: 4930 nM
T, minutes (residence time) [3, 8]: 5.16E + 00 minutes
Kd [3, 9]: 17800 nM
RU30/RUNef (extent of binding) [3]: 1.06E- 02

Oc1c(CCC2CCOCC2)c(-c2ccc(C(F)(F)F)cc2)nn1-c1nc2ccccc2[nH]1 [Compound I-139, 1-(1H-1,3-benzodiazol-2-yl)-4-[2-(oxan-4-yl)ethyl]-3-[4-(trifluoromethyl)phenyl]-1H-pyrazol-5-ol]
inhibition at 1 µM [1, 5]: 44.1%
inhibition at 1 µM [1, 4]: 44.1%
% Cell Viability [2]: 80.8%
Percent Viability @ 1 μM (TZM-bl cells) [2]: 80.8%
Kd [3]: 556 nM
Kd [3, 6]: 2070 nM
Kd [3, 7]: 2070 nM
T, minutes (residence time) [3, 8]: 1.77E + 01 minutes
RU30/RUNef (extent of binding) [3]: 3.41E- 03
